Reference: PMC13503280, “A pharmacological modality to sequester homomeric proteins” (Nature Chemical Biology, 2026)

Tests used:
Keap1 = Keap1 (Homo sapiens, UniProt Q14145); assay: Global proteomics of soluble lysate of U2OS cells; type: cell-based; conditions: EL133 250 nM, 20 h, RIPA lysis, relative to control
Procedure: Cells were incubated with DMSO at 0.1% or with compound for 20 h unless indicated differently, in quadruplicate. […] Samples were then reduced using DTT, followed by reaction with iodoacetamide. The labeled proteins were then precipitated on a dispersion of glass beads, followed by overnight trypsin digestion and purification of peptides. Samples were analyzed using an EASY-nLC 1200 nano-flow ultrahigh-performance LC system, equipped with a PepMap RSLC C18 column (particle size: 2 µm, pore size: 100 Å, diameter: 75 µm, length: 50 cm), mounted using an EASY-Spray source onto an Exploris 240 MS instrument. LC–MS-grade solvents were used for all chromatographic steps at 300 nl min^−1. The mobile phase consisted of solvent A (H2O + 0.1% formic acid) and solvent B (80% acetonitrile + 0.1% formic acid). Peptides were eluted from the column into the MS instrument using the following gradient: 1–40% B in 160 min, 40–100% B in 5 min, maintained at 100% for 20 min, 100–1% in 10 min and finally 1% for 5 min. […] Initially, data were acquired in data-independent acquisition mode. […] Four samples were analyzed per condition.
Data analysis was performed using Fragpipe[87],[88] […] Label-free quantification was performed using DIANN. After analysis, the quantified protein file was analyzed using Perseus[89]. […] Differences and P values were calculated using a double-sided Student’s t-test. […]

recombinant Keap1 BTB [1] = target: T1, recombinant Keap1 BTB (Homo sapiens, UniProt Q14145, S172A); assay: DLS of recombinant Keap1 BTB domain; type: biochemical; conditions: 50 μM Keap1 BTB, 50 μM compound, room temperature, over time
T1 construct: The Keap1 BTB domain (48–180) encoding the single substitution S172A was cloned into pET28-bdSumo vector; His–bdSumo (N, cleaved yes); made in house; host or cells: E. coli BL21(DE3)
Procedure: (§1) DLS samples were prepared in the respective protein’s elution buffer, to which 0.01% Tween was added, along with the compound from a DMSO stock to obtain a final DMSO concentration of 2%. Samples were prepared at room temperature and measured at a constant temperature of 25 °C. All samples were passed through 0.1-μm filters and then placed in a clear-bottom black 384-well plate. DLS data were recorded using a DynaproPlate Reader III (Wyatt Technology). Data were processed with the supplied DYNAMICS software.

recombinant Keap1 BTB [2] = assay: DLS of recombinant Keap1 BTB domain; type: biochemical; conditions: 50 µM protein, 50 µM compound
Procedure: as §1

[3] = tested on: RAS GTPase-activating protein-binding protein 1; assay: Colocalization with RAS GTPase-activating protein-binding protein 1 (stress granules); type: cell-based

T1 sequence (Q14145 48-180 S172A): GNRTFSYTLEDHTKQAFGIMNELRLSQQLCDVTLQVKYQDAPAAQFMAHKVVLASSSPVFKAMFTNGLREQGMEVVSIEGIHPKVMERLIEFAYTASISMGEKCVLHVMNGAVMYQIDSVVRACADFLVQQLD
Sequence of Keap1 (Q14145 whole entry): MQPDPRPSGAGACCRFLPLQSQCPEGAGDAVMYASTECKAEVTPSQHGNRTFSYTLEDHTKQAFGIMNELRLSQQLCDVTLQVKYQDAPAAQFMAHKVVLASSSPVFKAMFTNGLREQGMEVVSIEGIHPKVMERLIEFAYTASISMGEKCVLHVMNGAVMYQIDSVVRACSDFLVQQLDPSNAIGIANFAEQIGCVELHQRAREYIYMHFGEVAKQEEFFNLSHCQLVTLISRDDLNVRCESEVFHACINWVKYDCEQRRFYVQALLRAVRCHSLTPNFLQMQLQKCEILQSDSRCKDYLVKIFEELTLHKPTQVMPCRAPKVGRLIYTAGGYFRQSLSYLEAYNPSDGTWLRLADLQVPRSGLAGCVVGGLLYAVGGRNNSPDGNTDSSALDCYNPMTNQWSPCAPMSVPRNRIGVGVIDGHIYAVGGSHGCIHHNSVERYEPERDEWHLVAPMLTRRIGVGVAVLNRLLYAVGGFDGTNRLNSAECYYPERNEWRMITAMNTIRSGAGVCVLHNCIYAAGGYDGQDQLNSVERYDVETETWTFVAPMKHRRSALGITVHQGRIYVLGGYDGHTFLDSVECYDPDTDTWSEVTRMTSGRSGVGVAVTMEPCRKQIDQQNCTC

SMILES: CC1(C)CCC2(C(=O)NCCOCCOCCNC(=O)C34CCC(C)(C)CC3C3C(=O)C=C5C6(C)C=C(C#N)C(=O)C(C)(C)C6CCC5(C)C3(C)CC4)CCC3(C)C(C(=O)C=C4C5(C)C=C(C#N)C(=O)C(C)(C)C5CCC43C)C2C1 (stereo not shown) [EL133]
- Keap1 level in soluble fraction (quantitative proteomics) (Keap1): significantly downregulated
- formation of large species (DLS) (recombinant Keap1 BTB [1]): large molecular species forming
- formation of large species with WT versus C151S Keap1 BTB (DLS) (recombinant Keap1 BTB [2]): able to form large species in solution with the wild-type (WT) protein but not with the mutant
- formation of stress granules [3]: does not induce the formation of its characteristic stress granules
